Measured values taken from the RepoRT retention time repository.

Experiment: HILIC, Waters ACQUITY UPLC BEH Amide, 100 × 2.1 mm, 1.7 µm; A: water + 0.125% formic acid + 10 mM ammonium formate; B: 5% water + 95% acetonitrile + 0.125% formic acid + 10 mM ammonium formate; gradient (min/%B) 0/100 2/100 7.7/70 9.5/40 10.25/30 12.75/100 17/100
Details: stereoisomer not certain

Row | SMILES | LC retention time
1 | COc1ccc(C=CC(=O)Nc2ccccc2C(=O)O)cc1OC [Tranilast] | 1.26 min
2 | O=c1n(CCCN2CCN(c3cccc(Cl)c3)CC2)nc2ccccn12 [Trazodone] | 2.38 min
3 | O=P(O)(O)OCC1OC(OC2OC(CO)C(O)C(O)C2O)C(O)C(O)C1O (stereo not drawn) [Trehalose-6-phosphate] | 9.72 min
4 | O=C(OC1C(Oc2ccccc2COC(=O)C2(O)C=CCCC2=O)OC(CO)C(O)C1O)c1ccccc1 (stereo not drawn) [Tremulacin] | 1.51 min
5 | Cc1nnc2n1-c1ccc(Cl)cc1C(c1ccccc1Cl)=NC2 [Triazolam] | 1.3 min
6 | CSc1nc2cc(Oc3cccc(Cl)c3Cl)c(Cl)cc2[nH]1 [Triclabendazole] | 1.01 min
7 | CN1CCN(CCCN2c3ccccc3Sc3ccc(C(F)(F)F)cc32)CC1 [Trifluoperazine] | 2.15 min
8 | NC(=O)N1c2ccccc2CC(=O)c2ccccc21 [Trileptal] | 1.13 min
9 | CCC(COC(=O)c1cc(OC)c(OC)c(OC)c1)(c1ccccc1)N(C)C (stereo not drawn) [Trimebutine] | 1.47 min
10 | CC(CN(C)C)CN1c2ccccc2CCc2ccccc21 (stereo not drawn) [Trimipramine] | 2.25 min
11 | CN(C)CCN(Cc1ccccc1)c1ccccn1 [Tripelennamine] | 1.98 min
12 | CC(C)C12OC1C1OC13C1(C)CCC4=C(COC4=O)C1CC1OC13C2O (stereo not drawn) [Triptolide] | 1.02 min
13 | CN1C2CCC1CC(OC(=O)c1c[nH]c3ccccc13)C2 (stereo not drawn) [Tropisetron] | 3.81 min
14 | COc1cc(C(=O)NC2CCCNC2)cc(OC)c1OC (stereo not drawn) [Troxipide] | 5.04 min
15 | NCCc1c[nH]c2ccccc12 [Tryptamine] | 6.92 min
16 | c1ccc2c3c([nH]c2c1)CNCC3 [Tryptoline] | 4.9 min
17 | NC(Cc1c[nH]c2ccccc12)C(=O)O (stereo not drawn) [Tryptophan] | 6.92 min
18 | NC(=O)C(N)Cc1c[nH]c2ccccc12 (stereo not drawn) [Tryptophanamide] | 5.91 min
19 | NC(Cc1ccc(O)cc1)C(=O)NC(Cc1ccc(O)cc1)C(=O)NC(Cc1ccc(O)cc1)C(=O)O (stereo not drawn) [Tyr-Tyr-Tyr] | 7.09 min
20 | NC(Cc1ccc(O)cc1)C(=O)NC(Cc1ccc(O)cc1)C(=O)O (stereo not drawn) [Tyr-Tyr] | 7.38 min
21 | NCCc1ccc(O)cc1 [Tyramine] | 5.58 min

Row | SMILES | LC retention time
22 | NC(Cc1ccc(O)cc1)C(=O)O (stereo not drawn) [Tyrosine] | 7.61 min
23 | CN1CCc2cc(Cl)c(O)cc2C(c2ccccc2)C1 (stereo not drawn) [UNII-UGT5535REQ] | 2.89 min
24 | O=c1cc[nH]c(=O)[nH]1 [Uracil] | 2.4 min
25 | COc1ccccc1N1CCN(CCCNc2cc(=O)n(C)c(=O)n2C)CC1 [Urapidil] | 4.58 min
26 | NC(=O)NC(CCC(=O)O)C(=O)O (stereo not drawn) [Ureidoglutaric acid] | 7.8 min
27 | O=c1ccn(C2OC(COP(=O)(O)O)C(O)C2O)c(=O)[nH]1 (stereo not drawn) [Uridine 5'-monophosphate] | 8.97 min
28 | O=c1ccn(C2OC(CO)C(O)C2O)c(=O)[nH]1 (stereo not drawn) [Uridine] | 4.72 min
29 | O=C(O)C=Cc1cnc[nH]1 [Urocanic acid] | 3.69 min
30 | CC(C)C(N)C(=O)OCCOCn1cnc2c(=O)[nH]c(N)nc21 (stereo not drawn) [Valaciclovir] | 6.83 min
31 | Cc1onc(-c2ccccc2)c1-c1ccc(S(N)(=O)=O)cc1 [Valdecoxib] | 1.01 min
32 | CC(C)C(N)C(=O)O (stereo not drawn) [Valine] | 7.24 min
33 | CCCCC(=O)N(Cc1ccc(-c2ccccc2-c2nn[nH]n2)cc1)C(C(=O)O)C(C)C (stereo not drawn) [Valsartan] | 1.69 min
34 | COc1cc(C=O)ccc1O [Vanillin] | 1.15 min
35 | CCCc1nc(C)c2c(=O)[nH]c(-c3cc(S(=O)(=O)N4CCN(CC)CC4)ccc3OCC)nn12 [Vardenafil] | 1.7 min
36 | COc1ccc(C(CN(C)C)C2(O)CCCCC2)cc1 (stereo not drawn) [Venlafaxine] | 2.44 min
37 | CC(=O)OC1CC2CCC3C(CCC4(C)C3CC([N+]3(C)CCCCC3)C4OC(C)=O)C2(C)CC1N1CCCCC1 (stereo not drawn) [Vercuronium] | 5.53 min
38 | OC1CCCCC1N1CCC(c2ccccc2)CC1 (stereo not drawn) [Vesamicol] | 2.65 min
39 | CCC1(O)CC2CN(CCc3c([nH]c4ccccc34)C(C(=O)OC)(c3cc4c(cc3OC)N(C=O)C3C(O)(C(=O)OC)C(OC(C)=O)C5(CC)C=CCN6CCC43C65)C2)C1 (stereo not drawn) [Vincristine] | 3.7 min
40 | CCC1(O)CC2CN(CCc3c([nH]c4ccccc34)C(C(=O)OC)(c3cc4c(cc3OC)N(C)C3C(O)(C(N)=O)C(O)C5(CC)C=CCN6CCC43C65)C2)C1 (stereo not drawn) [Vindesine] | 5.76 min
41 | CCC1=CC2CN(C1)Cc1c([nH]c3ccccc13)C(C(=O)OC)(c1cc3c(cc1OC)N(C)C1C(O)(C(=O)OC)C(OC(C)=O)C4(CC)C=CCN5CCC31C54)C2 (stereo not drawn) [Vinorelbine] | 4.76 min
42 | C=COC(N)=O [Vinyl Carbamate] | 1.34 min

Row | SMILES | LC retention time
43 | Cc1ccnc2c1NC(=O)c1cccnc1N2C1CC1 [Viramune] | 1.16 min
44 | O=c1cc(-c2ccc(O)cc2)oc2c(C3OC(CO)C(O)C(O)C3O)c(O)cc(O)c12 (stereo not drawn) [Vitexin] | 5.33 min
45 | CC(c1ncncc1F)C(O)(Cn1cncn1)c1ccc(F)cc1F (stereo not drawn) [Voriconazole] | 1.02 min
46 | CC(=O)CC(c1ccccc1)c1c(O)c2ccccc2oc1=O (stereo not drawn) [Warfarin] | 0.99 min
47 | NC(Cn1ccc(=O)[nH]c1=O)C(=O)O (stereo not drawn) [Willardiine] | 8.72 min
48 | CN(CCO)CC(O)Cn1cnc2c1c(=O)n(C)c(=O)n2C (stereo not drawn) [Xanthinol] | 6.01 min
49 | O=c1[nH]c(=O)c2ncn(C3OC(CO)C(O)C3O)c2[nH]1 (stereo not drawn) [Xanthosine] | 7.3 min
50 | COc1c2occc2cc2ccc(=O)oc12 [Xanthotoxin] | 1.04 min
51 | COc1cc(N)c(Cl)cc1C(=O)NC1CN2CCC1CC2 (stereo not drawn) [Zacopride] | 4.66 min
52 | COc1cc(C(=O)NS(=O)(=O)c2ccccc2C)ccc1Cc1cn(C)c2ccc(NC(=O)OC3CCCC3)cc12 [Zafirlukast] | 1 min
53 | CCN(C(C)=O)c1cccc(-c2ccnc3c(C#N)cnn23)c1 [Zaleplon] | 1.02 min
54 | COc1cc(-c2ccc(=O)[nH]n2)ccc1OC(F)F [Zardaverine] | 1.19 min
55 | CC1CCCC(O)CCCCCc2cc(O)cc(O)c2C(=O)O1 (stereo not drawn) [Zeranol] | 1.11 min
56 | CC(c1cc2ccccc2s1)N(O)C(N)=O (stereo not drawn) [Zileuton] | 1.23 min
57 | CN(C)CCc1c[nH]c2ccc(CC3COC(=O)N3)cc12 (stereo not drawn) [Zolmitriptan] | 4.8 min
58 | Cc1ccc(-c2nc3ccc(C)cn3c2CC(=O)N(C)C)cc1 [Zolpidem] | 1.62 min
59 | N[C@H]1[C@@H](OP(=O)(O)O)O[C@H](CO)[C@H](O)[C@@H]1O [alpha-Galactosamine-1-phosphate] | 7.06 min
60 | CSCCC(=O)C(=O)O [alpha-Keto-gamma-(methylthio)butyric acid] | 0.92 min
61 | C=C1CCOC1=O [alpha-Methylene-gamma-butyrolactone] | 1.05 min
62 | C[C@](N)(Cc1cnc[nH]1)C(=O)O [alpha-Methylhistidine] | 8.68 min
63 | CC1=C2C3OC(=O)C(C)C3CCC2(C)C=CC1=O (stereo not drawn) [alpha-Santonin] | 1.07 min
